In patent publication US20130344008A1, “NONCARIOUS MATERIAL AND ANTICARIOUS AGENT CONTAINING RARE SUGAR” (priority 2006, published 2013):

Legend:
[1] = system: S. mutans strain MT 8148 (JCM5175); assay: Example 4: cariostatic test with D-psicose and catechin, pH of culture in PRB broth; format: cell-based, Streptococcus mutans; conditions: for pH: PRB broth, 20 hours later
Description: A cariostatic test with D-psicose was carried out. Additionally, the effect of catechins added was also examined. D-Psicose was supplied from the Rare Sugar Research Center, the National University Corporation Kagawa University. As the catechin, Polyphenon 70A of Mitsui Norin Co., Ltd. was used. The S. mutans strain MT 8148 (JCM5175) was plated in a Brain Heart Infusion broth supplemented with agar, for culturing at 37° C. for 48 hours. Further, the resulting liquid culture was inoculated in a fresh Brain Heart Infusion broth, for culturing at 37° C. for 24 hours. The liquid preculture was inoculated in a phenol red broth (PRB broth) containing sugars and catechins at the following concentrations for culturing at 37° C.; 20 hours later, the pH was measured. As a control, sucrose was used.

[2] = system: S. mutans strain MT 8148 (JCM5175); assay: Example 2: bacterial growth (OD 660 nm) and pH of S. mutans culture in phenol red broth with 1% test substance; format: cell-based, Streptococcus mutans; conditions: PRB broth, 37° C., 48 hours later; for OD: bacterial growth, absorbance at 660 nm
Description: D-Psicose and L-psicose were used to assay the actions thereof against S. mutans. D-Psicose and L-psicose were supplied from the Rare Sugar Research Center, the National University Corporation Kagawa University. The S. mutans strain MT 8148 (JCM5175) was plated in a Brain Heart Infusion broth supplemented with agar for culturing at 37° C. for 48 hours. The liquid culture was inoculated in a fresh Brain Heart Infusion broth, for culturing at 37° C. for 24 hours. The liquid culture was inoculated in a phenol red broth (PRB broth) containing a test substance at 1%, for culturing at 37° C.; the bacterial growth (absorbance at 660 nm: OD) and the pH were assayed 48 hours later. Asa control, glucose, fructose, sucrose and Xylitol were used. After culturing for a given period of time, additionally, the optical density of apart of the liquid culture was measured with an absorptiometer (OD 660 nm).

[3] = system: S. mutans strain JCM5075; assay: Example 1: optical density and pH of S. mutans JCM5075 cultures in BHI broth with rare sugars, with or without sucrose; format: cell-based, Streptococcus mutans; conditions: for Optical density (OD) 12 hours later: OD600
Excerpt: S. mutans strains characteristically form insoluble glucan on addition of sucrose, to generate acids and reduce the pH of the culture medium, which is considered to cause decalcification of teeth on dental surface to form decayed teeth (the reason why the strains are designated bacteria causing decayed teeth). JCM 5075 of S. mutans strains and the Brain Heart Infusion (BHI) broth were used to assay the optical density (the increase of the number of the bacterial cells) and the pH change in individual rare sugar solutions with or without sucrose added. As the rare sugars, there were used D-fructose, L-fructose, D-sorbose, L-sorbose, D-psicose, L-psicose, D-tagatose and L-tagatose. The rare sugars used were supplied from the Rare Sugar Research Center, the National University Corporation Kagawa University.
The strain JCM5075 thawed from −80° C. stock was cultured for 48 hours, and was adjusted to OD 0.3. 100 μl of the resulting culture was added to each 2-ml portion of the BHI broths under individual conditions, to assay the optical density and the pH 24 hours later (observation with naked eyes and absorbance: OD600).
After collecting a part of the liquid culture and centrifuging the culture, the pH of the resulting supernatant was measured with a pH meter. The results are shown in Table 2 (0, 6, 8, 12 and 24 hours after the addition of the bacteria to the BHI broth) and FIG. 3.

[4] = system: S. mutans strain (JCM5075); assay: Example 3: pH of S. mutans culture in BHI broth with test substance after 48-hour culturing; format: cell-based, Streptococcus mutans; conditions: 1% sucrose (control), BHI broth, after 48-hour culturing
Description: Allitol and D-sorbose were used to assay the actions thereof against S. mutans. Allitol and D-sorbose were supplied from the Rare Sugar Research Center, the National University Corporation Kagawa University. The S. mutans strain (JCM5075) was plated in a Brain Heart Infusion broth containing a 10% test substance, to measure the pH of the liquid culture after 48-hour culturing. As a control, 1% sucrose and 10% Xylitol were used.

[5] = system: S. mutans strain JCM5075; assay: Reference Example: formation of insoluble glucan with S. mutans, naked-eye observation; format: cell-based, Streptococcus mutans; conditions: sucrose added, BHI broth, anaerobic conditions, FIG. 1
Description: S. mutans strains characteristically form insoluble glucan on addition of sucrose, to reduce the pH of the culture medium, which is considered to cause decalcification of dental surface to form decayed teeth (the reason why the strains are designated bacteria causing decayed teeth). The S. mutans strain JCM5075 was plated in a Brain Heart Infusion (BHI) broth, for culturing under anaerobic conditions, to visually determine the bacterial growth (potency for forming insoluble glucan: optical density) with naked eyes.

[6] = system: caries; conditions: cited from earlier work
[7] = 5% test substance + 1% sucrose, BHI broth
[8] = 5% test substance, no sucrose, BHI broth
[9] = 10% test substance + 1% sucrose, BHI broth
[10] = 10% test substance, no sucrose, BHI broth

SMILES: O=C(CO)[C@H](O)[C@H](O)[C@H](O)CO [D-psicose]
- pH ([1]; 3.3% test substance + 0.25% sucrose): 4.4
- pH ([1]; 5.0% test substance + 0.25% sucrose): 5.5
- action of suppressing the pH reduction in a culture medium with addition of sucrose ([1]; D-psicose at a concentration of 5%, 0.25% sucrose): exerted an action of suppressing the pH reduction
- pH [2]: 5.9
- OD [2]: 0.02
- pH 0 hour later [3, 7]: 7.4
- pH 6 hours later [3, 7]: 7.3
- pH 8 hours later [3, 7]: 7.2
- pH 12 hours later [3, 7]: 7.2
- pH 24 hours later [3, 7]: 6.4
- pH 0 hour later [3, 8]: 7.4
- pH 6 hours later [3, 8]: 7.3
- pH 8 hours later [3, 8]: 7.2
- pH 12 hours later [3, 8]: 7.2
- pH 24 hours later [3, 8]: 7.0
- pH 0 hour later [3, 9]: 7.3
- pH 6 hours later [3, 9]: 7.2
- pH 8 hours later [3, 9]: 7.2
- pH 12 hours later [3, 9]: 7.2
- pH 24 hours later [3, 9]: 7.1
- Optical density (OD) 12 hours later ([3]; 10% test substance, BHI broth): 0.158
- pH 0 hour later [3, 10]: 7.3
- pH 6 hours later [3, 10]: 7.2
- pH 8 hours later [3, 10]: 7.2
- pH 12 hours later [3, 10]: 7.2
- pH 24 hours later [3, 10]: 7.2
- suppression of the pH reduction ([3]; 24 hours later, also with 1% sucrose addition, FIG. 3): most highly suppressed the pH reduction
- suppression of OD increase compared with no addition ([3]; BHI broth, FIG. 2 / Table 1): suppression of OD increase was observed

SMILES: OC[C@H]1O[C@@](CO)(O[C@H]2O[C@H](CO)[C@@H](O)[C@H](O)[C@H]2O)[C@@H](O)[C@@H]1O [sucrose, reference compound]
- pH [4]: 4.0
- pH ([1]; 0.25% sucrose alone, 37° C.): 4.5
- pH [2]: 3.9
- OD [2]: 0.14
- pH 0 hour later ([3]; 1% sucrose alone, BHI broth): 7.4
- pH 6 hours later ([3]; 1% sucrose alone, BHI broth): 7.2
- pH 8 hours later ([3]; 1% sucrose alone, BHI broth): 7.2
- pH 12 hours later ([3]; 1% sucrose alone, BHI broth): 6.7
- pH 24 hours later ([3]; 1% sucrose alone, BHI broth): 4.7
- pH change 24 hours later (in words) ([3]; 1% sucrose, or 10% Xylitol+1% sucrose, or 10% fructose+1% sucrose, FIG. 3): highly inclined to acidity
- Optical density (OD) 12 hours later ([3]; 1% test substance, BHI broth): 0.060
- precipitation of bacterial masses (insoluble glucan) under observation with naked eyes ([3]; addition of 1% sucrose, addition of 10% D-fructose, 24 hours later): caused the precipitation of bacterial masses (insoluble glucan)
- formation of insoluble glucan observed with naked eyes [5]: formed insoluble glucan

SMILES: Oc1cc(O)c2c(c1)O[C@H](c1cc(O)c(O)c(O)c1)[C@@H](O)C2 [gallocatechin]
- effective concentration against caries in the test system [6]: 125 µg/mL
